Test results reported in the SangsterLogP compilation.

experiment: not given

Row | SMILES | logP
1 | C=CCC(C)OC(=O)Nc1ccc(OCC)c(OCC)c1 (stereo unspecified) | 3.37
2 | CCCCCCC(C)OC(=O)Nc1ccc(OCC)c(OCC)c1 (stereo unspecified) | 5.06
3 | CCOc1ccc(NC(=O)OC(C)C(Cl)(Cl)Cl)cc1OCC (stereo unspecified) | 3.96
4 | C=CC(CC)OC(=O)Nc1ccc(OCC)c(OCC)c1 (stereo unspecified) | 3.42
5 | CCOc1ccc(NC(=O)OC(C)COC)cc1OCC (stereo unspecified) | 2.56
6 | CCOc1ccc(NC(=O)OC(C)CF)cc1OCC (stereo unspecified) | 2.59
7 | CCOc1ccc(NC(=O)OC(C)c2ccccc2)cc1OCC (stereo unspecified) | 3.56
8 | CCOc1ccc(NC(=O)OC(C)CCl)cc1OCC (stereo unspecified) | 2.97

Continued, values first:

Row | logP | SMILES
9 | 2.86 | C#CCC(C)OC(=O)Nc1ccc(OCC)c(OCC)c1 (stereo unspecified)
10 | 2.62 | CCOc1ccc(NC(=O)OCCCl)cc1OCC
11 | 2.27 | CCOc1ccc(NC(=O)OCCF)cc1OCC
12 | 2.78 | CCOc1ccc(NC(=O)OCCBr)cc1OCC
13 | 3.07 | C#CC(CC)OC(=O)Nc1ccc(OCC)c(OCC)c1 (stereo unspecified)
14 | 3.17 | CCOc1ccc(NC(=O)OC(C)(C)C)cc1OCC
15 | 2.54 | C#CCCOC(=O)Nc1ccc(OCC)c(OCC)c1

experiment: method code SF-AS, from DOI: 10.1584/jpestics.13.587

Row | logP | SMILES
16 | 2.68 | C#CC(C)OC(=O)Nc1ccc(OCC)c(OCC)c1 (stereo unspecified)
